In patent US20040248918A1, “N-phenyl-2-pyrimidine-amine derivatives and process for the preparation thereof” (IL YANG PHARM. CO., LTD., priority 2003, published 2004):

Experiments:
[1] = test system: acute myelogenous leukemia cell (KG-1); assay: Growth inhibition of KG-1 (MTT); type: cell-based; conditions: for IC50: Homo sapiens
[2] = test system: rectal cancer cell of CMT-93; assay: Growth inhibition of CMT-93 (MTT); type: cell-based; conditions: for IC50: CMT93, read-out: IC50
Procedure: (§1) In the present experiment, the inhibitory activity of the compound of formula (1) was determined against the growth of K562 cancer cell. First, the cells were allowed to stand in RPMI (Roswell Park Memorial Institute)-1640 medium containing 10% (v/v) fetal bovine serum in an incubator of 37° C. and 5% by volume of CO2. The cancer cells (1000 cells) were transferred to a 96-well plate, and the test compound was diluted. The plate was allowed to stand under the above mentioned conditions for 2 days. After this treatment, to the cells was added 0.2% MTT (3-[4,5-dimethylthiazol-2-yl]-2,5-diphenyltetrazolium bromide) solution, and the resulting mixture was allowed to stand under the constant temperature-condition for 4 hours. The supernatant was removed to leave the resulting crystal. DMSO was added to dissolve the crystal, and the absorbance of the solution was measured at 540 nm. IC50 value was calculated using a computer system according to the following formula: […]
(§2) The test was performed according to the same procedure as Experiment 1.

[3] = Acute toxicity test in mice (oral administration); conditions: both sexes, ICR, mouse, in vivo, 2000 mg/kg; mice, oral
Procedure: (§3) In order to determine the acute toxicity of the compound of the present invention when the compound is orally administered, mice (ICR, 24˜26 g) were fasted for 16 hours. One group consists of 10 males and 10 females. The first group is the control group and physiological saline was administered per oral to this group. The compounds of Examples 2 and 4 were orally administered in a dosage of 2000 mg/kg, the maximum dosage in acute toxicity test, to each test group. […] On the last day of the test, 14th day from the start, the mice were subjected to an autopsy in order to examine changes of the internal organs. […] This means that the compounds of the present invention including those of Examples 2 and 4 are safe in the aspect of acute toxicity.

mice (ICR) [4] = assay: Acute toxicity test in mice (oral administration); conditions: mouse, in vivo, po, 2000 mg/kg
Procedure: as §3

[5] = test system: pancreatic cancer cell of PANC-1; assay: Growth inhibition of PANC-1 (MTT); type: cell-based; conditions: for IC50: Homo sapiens, read-out: IC50
hepatoma cell (SNU-182) = assay: Growth inhibition of SNU-182 (MTT); type: cell-based; design: IC50 as fraction of that of Imatinib mesylate: unit not given beside the values; conditions: for IC50: Homo sapiens
Procedure: as §1, §2

[6] = test system: gastric cancer cell (KATO III); assay: Growth inhibition of KATO III (MTT); type: cell-based; design: IC50 as fraction of that of Imatinib mesylate: unit not given beside the values; conditions: for IC50: Homo sapiens
Procedure: as §1, §2

sarcoma-180 = assay: Anti-cancer activity in sarcoma animal model; type: in vivo, ICR mouse; conditions: day 30; for Average tumor weight (Mean ± S.E.): three times at intervals of 4 days, in g (unit assumed)
Procedure: The anti-cancer activity against sarcoma-180 was determined using ICR mouse (22˜25 g, male). Sarcoma-180 (0.1 ml; 5×10^7 cells/ml) was hypodermically implanted to the left inguinal area of the mouse. After 72 hours from the hypodermic implantation, physiological saline was intravenously administered to the control group. For the test groups, the compound of Example 10 dissolved in physiological saline in a concentration of 25 or 50 mg/kg was intravenously administered three times at intervals of 4 days. On the 30th day from the implantation of the tumor cell, the mice were sacrificed to take out the induced solid tumors. The solid tumors were weighed, the average weight of the tumors was obtained, and the percent inhibition ratio was calculated according to the following formula:
Inhibition ratio (I.R.) (%)=[(Cw−Tw)/Cw]×100
I.R. represents the percent inhibition ratio,
Cw represents the average weight of tumor of the control group; and
Tw represents the average weight of tumor of the test group.

[7] = Acute toxicity test in mice (intravenous administration); type: in vivo; conditions: both sexes, ICR, mouse, in vivo, iv; mice, intravenously administered
Procedure: (§4) In this test, the acute toxicity of the compound of the present invention when the compound is intravenously administered was determined on mice (ICR, 24˜26 g). One group consists of 10 males and 10 females. The first group is the control group and physiological saline was intravenously administered to this group. The compound of Example 10 was intravenously administered in dosages of 25, 50, 75, and 100 mg/kg, respectively, to each test group. […] On the last day of the test, 14th day from the start, the mice were subjected to an autopsy in order to examine changes of the internal organs. […] No mouse died in these test groups. Further, in the test group of 100 mg/kg dosage, 8 mice among 10 died within 10 minutes after the administration.

mice (ICR) [8] = assay: as above; type: in vivo
Procedure: as §4

SMILES: CS(=O)(=O)O.Cc1ccc(NC(=O)c2ccc(CNN3CCN(C)CC3)cc2)cc1Nc1nccc(-c2cccnc2)n1 [Example 4, 4-(4-methylpiperazin-1-ylaminomethyl)-N-[4-methyl-3-(4-(pyridin-3-yl)pyrimidin-2-yl)aminophenyl]benzamide methanesulfonate]
- IC50 [1]: > 50 µg/mL
- IC50 [2]: 8.39 µg/mL
- LD50 at 14 days [3]: ≥ 2000 mg/kg
- Clinical conditions and autopsy (mice (ICR) [4]): neither abnormal response nor specific autopsy result was observed
- Mortality during the test period (mice (ICR) [4]): no mouse died
- Improved activity versus 5-Fu [5]: 10 times
- IC50 [5]: 53.8 µg/mL
- IC50 (hepatoma cell (SNU-182)): 48 µg/mL
- IC50 [6]: 32.4 µg/mL

SMILES: CN1CCCN(Cc2ccc(C(=O)Nc3ccc(Nc4nccc(-c5cccnc5)n4)cc3)cc2)CC1.CS(=O)(=O)O [Example 10, 4-(4-methylhomopiperazin-1-ylmethyl)-N-[4-(4-(pyridin-3-yl)pyrimidin-2-yl)aminophenyl]benzamide methanesulfonate]
- Percent Inhibition Ratio (I.R.) (sarcoma-180; 25 mg/kg i.v.): 36.1%
- Average tumor weight (Mean ± S.E.) (sarcoma-180; 25 mg/kg i.v.): 2.09 ± 1.4
- Percent Inhibition Ratio (I.R.) (sarcoma-180; 50 mg/kg i.v.): 63.0%
- Average tumor weight (Mean ± S.E.) (sarcoma-180; 50 mg/kg i.v.): 1.21 ± 1.2
- IC50 as fraction of that of Imatinib mesylate [1]: 1/10
- IC50 [1]: 3.31 µg/mL
- Improved activity versus Imatinib mesylate [2]: > 1.5 times
- IC50 [2]: 4.04 µg/mL
- LD50 at 14 days [7]: 75 to 100 mg/kg
- Clinical conditions and autopsy (mice (ICR) [8]; 25 mg/kg i.v., 14 days): neither abnormal response nor specific autopsy
- Mice died (mice (ICR) [8]; 100 mg/kg i.v., within 10 minutes after the administration): 8 mice among 10
- Clinical conditions (mice (ICR) [8]; 50 and 75 mg/kg i.v.): weak trembling immediately after the administration
- Mortality (mice (ICR) [8]; 50 and 75 mg/kg i.v.): No mouse died
- Time to recovery from trembling (mice (ICR) [8]; 50 and 75 mg/kg i.v.): ≤ 1 h
- Improved activity versus 5-Fu [5]: > 120 times
- Improved activity versus Imatinib mesylate [5]: more than 10 times
- Improved activity versus cisplatin [5]: more than 9 times
- IC50 [5]: 4.62 µg/mL
- IC50 as fraction of that of Imatinib mesylate (hepatoma cell (SNU-182)): 1/5
- IC50 (hepatoma cell (SNU-182)): 7.94 µg/mL
- IC50 as fraction of that of Imatinib mesylate [6]: 1/10
- IC50 [6]: 3.26 µg/mL
